According to patent publication US9512128B2 (BAYER CROPSCIENCE AG, priority 2012, dated 2016):
Read-outs that look alike come from different tables or passages of the source.

Test: log P by HPLC on reversed-phase columns (C 18), EEC directive 79/831 Annex V.A8
Assay type: physicochemical
Conditions: for logP[a]: method [a]; for logP[b]: method [b]
Experimental: The log P values were determined according to EEC directive 79/831 Annex V.A8 by HPLC (High Performance Liquid Chromatography) on reversed-phase columns (C 18), using the methods below:
[a] The LC-MS determination in the acidic range is carried out at pH 2.7 with 0.1% aqueous formic acid and acetonitrile (contains 0.1% formic acid) as mobile phases; linear gradient from 10% acetonitrile to 95% acetonitrile.
[b] The LC-MS determination in the neutral range is carried out at pH 7.8 using the mobile phases 0.001 molar aqueous ammonium bicarbonate solution and acetonitrile; linear gradient from 10% acetonitrile to 95% acetonitrile.

[1] = reversed-phase C18 HPLC column, pH 2.7, acidic range, pH 2.7, 0.1% aqueous formic acid / acetonitrile, read-out: log P[a]
[2] = reversed-phase C18 HPLC column, pH 7.8, neutral range, pH 7.8, 0.001 molar aqueous ammonium bicarbonate / acetonitrile, read-out: log P[b]
[3] = reversed-phase C18 HPLC column, pH 2.7, method [a], read-out: logP[a]
[4] = reversed-phase C18 HPLC column, pH 7.8, method [b], read-out: logP[b]
[5] = acidic range, pH 2.7, 0.1% aqueous formic acid / acetonitrile, read-out: log P[a]
[6] = neutral range, pH 7.8, 0.001 molar aqueous ammonium bicarbonate / acetonitrile, read-out: log P[b]

Row | SMILES | logP[a] | logP[b] | chromatographic logP [1] | chromatographic logP [2] | other results
1 | FC(F)(F)CSc1cc(Br)ccc1C(F)(F)F [VIIa-10, 4-Bromo-2-[(2,2,2-trifluoroethyl)sulphanyl]-1-(trifluoromethyl)benzene] |  |  | 4.22 | 4.2 | 
2 | Cc1ccc(B(O)O)cc1SCC(F)(F)F [VIIIa-7, {4-Methyl-3-[(2,2,2-trifluoroethyl)sulphanyl]phenyl}boronic acid] |  |  | 2.3 | 2.24 | 
3 | O=c1c2ccsc2ncn1-c1cc([S+]([O-])CC(F)(F)F)c(Cl)cc1Cl (stereo not shown) [Compound 98] | 2.53 | 2.53 |  |  | 
4 | O=c1c2sccc2ncn1-c1ccc(C(F)(F)F)c([S+]([O-])CC(F)(F)F)c1 (stereo not shown) [Compound 107] | 2.44 | 2.40 |  |  | 
5 | O=c1c2sccc2ncn1-c1ccc(Cl)c(SCC(F)(F)F)c1 [Compound 103] | 2.90 | 2.84 |  |  | 
6 | Cc1cc(F)c(N)cc1S [XVI-1, 5-Amino-4-fluoro-2-methylbenzenethiol] |  |  | 3.7 |  | 
7 | O=c1c2sccc2ncn1-c1ccc(C(F)(F)F)c(SCC(F)(F)F)c1 [Compound 104] | 3.09 | 3.07 |  |  | 
8 | Nc1cc(SCC(F)(F)F)c(Cl)cc1F [IVa-2, 4-Chloro-2-fluoro-5-[(2,2,2-trifluoroethyl)sulphanyl]aniline] |  |  | 3.02 | 3 | 
9 | Nc1cc(SSc2ccc(Cl)c(N)c2)ccc1Cl [XVIII-4, 3,3′-Disulphanediylbis(6-chloroaniline)] |  |  | 3.84 | 3.83 | 
10 | Nc1ccc(Cl)c(SSc2cc(N)ccc2Cl)c1 [XVIII-3, 3,3′-Disulphanediylbis(4-chloroaniline)] |  |  | 3.31 | 3.35 | 
11 | Cc1ccc(I)cc1SCC(F)(F)F [VIIa-7-I, 4-Iodo-1-methyl-2-[(2,2,2-trifluoroethyl)sulphanyl]benzene] |  |  | 4.49 | 4.48 | 
12 | O=c1c2ccsc2ncn1-c1ccc(Cl)c(SCC(F)(F)F)c1 [Compound 85] | 3.09 | 3.03 |  |  | 
13 | Nc1cc(SSc2cc(N)c(Cl)cc2Cl)c(Cl)cc1Cl [XVIII-6, 3,3′-Disulphanediylbis(4,6-dichloroaniline)] |  |  | 5.14 | 4.95 | 
14 | O=[N+]([O-])c1cc(SSc2ccc(Cl)c([N+](=O)[O-])c2)ccc1Cl [XIX-4, 1,1′-Disulphanediylbis(4-chloro-3-nitrobenzene)] |  |  |  |  | chromatographic logP (pH 2.7, log P[a]): 4.58; chromatographic logP (pH 7.8, log P[b]): 4.58
15 | Cc1ccc(Br)cc1SSc1cc(Br)ccc1C |  |  | > 7.36 | > 7.36 | 
16 | O=c1c2ccsc2ncn1-c1cc(SCC(F)(F)F)c(Cl)cc1Cl [Compound 90] | 3.51 | 3.42 |  |  | 
17 | O=[N+]([O-])c1ccc(Cl)c(SSc2cc([N+](=O)[O-])ccc2Cl)c1 [XIX-3, 1,1′-Disulphanediylbis(2-chloro-5-nitrobenzene)] |  |  |  |  | chromatographic logP [5]: 5.03; chromatographic logP [6]: 5.01
18 | Cc1ccc(B(O)O)cc1[S+]([O-])CC(F)(F)F (stereo not shown) [VIIIb-7, {4-Methyl-3-[(2,2,2-trifluoroethyl)sulphinyl]phenyl}boronic acid] |  |  | 1.41 | 1.36 | 
19 | O=[N+]([O-])c1cc(SSc2ccc(F)c([N+](=O)[O-])c2)ccc1F [XIX-5, 1,1′-Disulphanediylbis(4-fluoro-3-nitrobenzene)] |  |  |  |  | chromatographic logP [5]: 3.83; chromatographic logP [6]: 3.79
20 | FC(F)(F)CSc1cc(Br)c(Cl)cc1Cl [VIIa-6, 1-Bromo-2,4-dichloro-5-[(2,2,2-trifluoroethyl)sulphanyl]benzene] |  |  | 4.8 | 4.77 | 
21 | O=c1c2ncsc2ncn1-c1cc([S+]([O-])CC(F)(F)F)c(Cl)cc1Cl (stereo not shown) [Compound 67] | 1.96 | 1.96 |  |  | 
22 | N#Cc1ccc(Br)cc1SCC(F)(F)F [VIIa-9, 4-Bromo-2-[(2,2,2-trifluoroethyl)sulphanyl]benzonitrile] |  |  | 3.21 | 3.16 | 
23 | Cc1cc(F)c(B(O)O)cc1[S+]([O-])CC(F)(F)F (stereo not shown) [VIIIb-1, {2-Fluoro-4-methyl-5-[(2,2,2-trifluoroethyl)sulphinyl]phenyl}boronic acid] |  |  | 1.38 | 1.11 | 
24 | COc1ccc(Br)cc1SCC(F)(F)F [VIIa-8, 4-Bromo-1-methoxy-2-[(2,2,2-trifluoroethyl)sulphanyl]benzene] |  |  | 3.69 | 3.81 | 
25 | Cc1cc(F)c(NC(=O)C(F)(F)F)cc1SSc1cc(NC(=O)C(F)(F)F)c(F)cc1C [XI-1, N,N′-[Disulphanediylbis(6-fluoro-4-methylbenzene-3,1-diyl)]bis(2,2,2-trifluoroacetamide)] |  |  | 4.41 |  | 
26 | COc1ccc(-n2cnc3sccc3c2=O)cc1SCC(F)(F)F [Compound 84] | 2.75 | 2.71 |  |  | 

Now from value to molecule, other results behind:

Row | logP[a] | logP[b] | chromatographic logP [1] | chromatographic logP [2] | SMILES | other results
27 | 2.28 | 2.23 |  |  | Cc1cc(C)c(-n2cnc3c(ncn3C)c2=O)cc1SCC(F)(F)F [Compound 55] | 
28 | 3.55 | 3.51 |  |  | Cc1cc(F)c(-n2c(C(F)(F)F)nc3scnc3c2=O)cc1SCC(F)(F)F [Compound 65] | 
29 | 1.99 | 1.92 |  |  | Cc1c2c(=O)n(-c3ccc(C#N)c(SCC(F)(F)F)c3)cnc2nn1C [Compound 50] | 
30 | 1.43 | 1.40 |  |  | Cc1cc(C)c([S+]([O-])CC(F)(F)F)cc1-n1cnc2c(ncn2C)c1=O (racemic) [Compound 58] | 
31 | 2.36 | 2.35 |  |  | Cc1cc(C)c(-n2c(C)nc3c(ncn3C)c2=O)cc1SCC(F)(F)F [Compound 56] | 
32 | 2.79 | 2.73 |  |  | Cc1cc(C)c(-n2cnc3c(cnn3C)c2=O)cc1SCC(F)(F)F [Compound 7] | 
33 |  |  | 3.22 | 3.16 | Cc1cc(F)c(NC(=O)c2cnn(C)c2[N+](=O)[O-])cc1SCC(F)(F)F [N-{2-Fluoro-4-methyl-5-[(2,2,2-trifluoroethyl)sulphanyl]phenyl}-1-methyl-5-nitro-1H-pyrazole-4-carboxamide] | 
34 |  |  | 3.75 | 3.94 | Cc1cc(F)c(-n2c(C(F)(F)F)nc3c(cnn3C)c2=O)cc1SCC(F)(F)F [Compound 13, 5-{2-Fluoro-4-methyl-5-[(2,2,2-trifluoroethyl)sulphanyl]phenyl}-1-methyl-6-(trifluoromethyl)-1,5-dihydro-4H-pyrazolo[3,4-d]pyrimidin-4-one] | chromatographic logP [3]: 3.75; chromatographic logP [4]: 3.94
35 | 2.58 | 2.53 |  |  | Cn1ncc2c(=O)n(-c3ccc(Cl)c(SCC(F)(F)F)c3)cnc21 [Compound 23] | 
36 | 3.56 | 3.41 |  |  | Cc1cc(F)c(-n2cnc3c(Cl)csc3c2=O)cc1SCC(F)(F)F [Compound 110] | 
37 |  |  | 3.04 | 3.02 | Cc1ccc(-n2cnc3sccc3c2=O)cc1SCC(F)(F)F [Compound 83, 3-{4-Methyl-3-[(2,2,2-trifluoroethyl)sulphanyl]phenyl}thieno[2,3-d]pyrimidin-4(3H)-one] | chromatographic logP [3]: 3.09; chromatographic logP [4]: 3.01
38 |  |  | 2.67 | 2.63 | Cc1cc(F)c(-n2c(C(F)(F)F)nc3c(cnn3C)c2=O)cc1[S+]([O-])CC(F)(F)F (stereo not shown) [Compound 16, 5-{2-Fluoro-4-methyl-5-[(2,2,2-trifluoroethyl)sulphinyl]phenyl}-1-methyl-6-(trifluoromethyl)-1,5-dihydro-4H-pyrazolo[3,4-d]pyrimidin-4-one] | log P[a] (acidic range, pH 2.7, 0.1% aqueous formic acid / acetonitrile): 2.74; log P[b] (neutral range, pH 7.8, 0.001 molar aqueous ammonium bicarbonate / acetonitrile): 2.70; chromatographic logP [3]: 2.67; chromatographic logP [4]: 2.63
39 | 2.56 | 2.54 |  |  | Cc1ccc(-n2cnc3c(cnn3C)c2=O)cc1SCC(F)(F)F [Compound 8] | 
40 |  |  | 4.81 | 4.77 | Cc1cc(C)c(SCC(F)(F)F)cc1Br [VIIa-11, 1-Bromo-2,4-dimethyl-5-[(2,2,2-trifluoroethyl)sulphanyl]benzene] | 
41 | 2.92 | 2.86 |  |  | Cc1cc(C)c(-n2c(C)nc3c(cnn3C)c2=O)cc1SCC(F)(F)F [Compound 6] | 
42 | 2.81 | 2.73 |  |  | Cc1ccc(-n2cnc3c(c(C)nn3C)c2=O)cc1SCC(F)(F)F [Compound 30] | 
43 | 3.18 | 3.11 |  |  | Cc1nc2c(cnn2C)c(=O)n1-c1cc(SCC(F)(F)F)c(Cl)cc1Cl [Compound 5] | 
44 | 1.74 | 1.74 |  |  | Cc1cc(C)c([S+]([O-])CC(F)(F)F)cc1-n1cnc2c(cnn2C)c1=O (racemic) [Compound 9] | 
45 | 3.27 | 3.19 |  |  | Cc1cc(F)c(-n2c(C(F)(F)F)nc3nn(C)cc3c2=O)cc1SCC(F)(F)F [Compound 42] | 
46 | 2.11 | 2.09 |  |  | Cn1ncc2c(=O)n(-c3cc([S+]([O-])CC(F)(F)F)c(Cl)cc3Cl)cnc21 (racemic) [Compound 4] | 
47 | 1.86 | 1.84 |  |  | Cc1cc(C)c([S+]([O-])CC(F)(F)F)cc1-n1c(C)nc2c(cnn2C)c1=O (racemic) [Compound 10] | 
